Measurements published in the NIST ThermoML archive (doi:10.1016/j.tca.2010.06.014).
“And” between values parts separate entries of the source, which are not always exact repeats. Equal values may be shown once. ± gives the expanded uncertainty stated by the source.

Conditions: Liquid, DSC

Structure (SMILES): O=[N+]([O-])OCC(CO[N+](=O)[O-])O[N+](=O)[O-] [nitroglycerin]
- vapor or sublimation pressure (298.15 K): 7e-05 ± 2e-05 kPa and 7.1e-05 ± 1.4e-05 kPa
- vapor or sublimation pressure (303.15 K): 0.00014 ± 3e-05 kPa and 0.000137 ± 2.7e-05 kPa
- vapor or sublimation pressure (313.15 K): 0.00046 ± 9e-05 kPa and 0.000462 ± 9.2e-05 kPa
- vapor or sublimation pressure (323.15 K): 0.0014 ± 0.00028 kPa and 0.001402 ± 0.00028 kPa
- vapor or sublimation pressure (333.15 K): 0.00387 ± 0.00077 kPa and 0.003866 ± 0.00077 kPa
- vapor or sublimation pressure (343.15 K): 0.00981 ± 0.002 kPa and 0.009811 ± 0.002 kPa
- vapor or sublimation pressure (353.15 K): 0.02313 ± 0.0046 kPa
- vapor or sublimation pressure (363.15 K): 0.05111 ± 0.01 kPa
- vapor or sublimation pressure (373.15 K): 0.1066 ± 0.021 kPa
- vapor or sublimation pressure (383.15 K): 0.211 ± 0.042 kPa
- vapor or sublimation pressure (393.15 K): 0.3988 ± 0.08 kPa
- vapor or sublimation pressure (403.15 K): 0.7228 ± 0.14 kPa
- vapor or sublimation pressure (413.15 K): 1.261 ± 0.25 kPa
- vapor or sublimation pressure (423.15 K): 2.127 ± 0.43 kPa
- vapor or sublimation pressure (433.15 K): 3.475 ± 0.7 kPa
- vapor or sublimation pressure (443.15 K): 5.519 ± 1.1 kPa
- vapor or sublimation pressure (453.15 K): 8.539 ± 1.7 kPa
- vapor or sublimation pressure (463.15 K): 12.9 ± 2.6 kPa
- vapor or sublimation pressure (473.15 K): 19.06 ± 3.8 kPa
- vapor or sublimation pressure (483.15 K): 27.59 ± 5.5 kPa
- vapor or sublimation pressure (493.15 K): 39.2 ± 7.8 kPa
- vapor or sublimation pressure (503.15 K): 54.73 ± 11 kPa
- vapor or sublimation pressure (513.15 K): 75.19 ± 15 kPa
- vapor or sublimation pressure (523.15 K): 101.77 ± 20 kPa
